Where “and” joins values, the source holds several entries; their conditions need not be identical. Equal entries are not always repeated.
Columns and labels:
Format in all cases: cell-based
[1] = system: HNF-3beta expression in human embryonic stem cells (H9 line); assay: High content screening assay: HNF-3beta protein expression (differentiation); conditions: for HNF-3b Expression Fold over Wnt 3a/AA control: total intensity normalised to Wnt 3a/AA control
Method in brief: (§1)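 H9 hESCs on MATRIGEL treated days 1-2 with 10 μM compound in DMEM:F12, 0.5% FCS, 100 ng/ml activin A; days 3-4 with 2% FCS plus activin A without compound. Fixed cells immunostained for Sox17 or HNF-3beta with Draq5 nuclear counterstain. Cell number and staining intensity quantified by high-content imaging, 12 fields/well.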

[2] = system: human embryonic stem cells (H9 line); assay: High content screening assay: cell number (proliferative response); conditions: for fold induction at 10 µM: Homo sapiens, Embryonic stem cell, read-out: Proliferative Response, Fold over Wnt 3a/AA control
Method in brief: as §1

[3] = system: human embryonic stem cells (H9 or H1 lines); assay: Plate reader (MTS) proliferation assay; conditions: for % Control Value (proliferation) / activity at 10 µM: 10 μM test compound with 100 ng/ml activin A on days 1-2, MTS OD490 on day 4, vs Activin A/Wnt3a positive control, strong and moderate hits; for Average: average of replicate raw data; for Raw Data: replicate wells, plate reader proliferation screen of GSK-3B inhibitors; for activity at 10 µM: Homo sapiens, Embryonic stem cell, 96 h; for Average (of Raw Data): plate reader raw signal, mean of replicate wells
Method in brief: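 H9 or H1 cells on Matrigel, washed, then given DMEM:F12 with 0.5% FCS, 100 ng/ml activin A and 10 μM compound (days 1–2), then 2% FCS plus activin A (days 3–4). MTS added day 4, OD490 read after 1.5–4 h at 37 °C; triplicates as percent of activin A/Wnt3a control.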

[4] = system: Sox17 expression in human embryonic stem cells (H9 line); assay: High content screening assay: Sox17 protein expression (differentiation); conditions: for SOX-17 Expression Fold over Wnt 3a/AA control: total intensity normalised to Wnt 3a/AA control
Method in brief: as §1

[5] = 10 μM test compound with 100 ng/ml activin A on days 1-2, H9, total intensity by IN Cell Analyzer, strong and moderate hits
[6] = cell number in the wells analysed for HNF-3b expression
[7] = cell number in the wells analysed for HNF-3b expression, normalised to Wnt 3a/AA control
[8] = cell number in the wells analysed for SOX-17 expression
[9] = cell number in the wells analysed for SOX-17 expression, normalised to Wnt 3a/AA control
[10] = 10 μM test compound with 100 ng/ml activin A on days 1-2, H9, total cell number by IN Cell Analyzer, strong and moderate hits
[11] = relative to AA/Wnt3a/DMSO positive control (100.0) of the same plate
[12] = proliferation of human embryonic stem cells
[13] = proliferation of human embryonic stem cells, AA/Wnt3a = 100.0, no cells = 0.0

SMILES | HNF-3b Expression Total Intensity [1] | HNF-3b Expression Fold over Wnt 3a/AA control [1] | Proliferative Response Total cells [2, 6] | Proliferative Response Fold over Wnt 3a/AA control [2, 7] | Proliferative Response Total cells [2, 8] | Proliferative Response Fold over Wnt 3a/AA control [2, 9] | % Control Value (proliferation) [3] | Average [3] | Raw Data [3] | SOX-17 Expression Total Intensity [4] | SOX-17 Expression Fold over Wnt 3a/AA control [4] | further results
O=C1NC(=O)C2=C1c1cn(c3ccccc13)CCOCCOCCOCCn1cc2c2ccccc21 [Compound 163, 6,7,9,10,12,13,15,16-Octahydro-23H-5,26:17,22-di(metheno)dibenzo[k,q]pyrrolo[3,4-n][1,4,7,10,19]trioxadiazacyclohenicosine-23,25(24H)-dione] | 85245671 | 3.1115 fold | 5485 | 4.327 fold | 1313 | 0.7864 fold | 142.3% | 1.3242 | 1.3764 and 1.2753 and 1.3208 | 28506437 | 0.9266 fold | HNF3β Expression, Fold over Wnt 3a/AA control [1, 5]: 3.1115 Fold over Wnt 3a/AA control; SOX17 Expression, Fold over Wnt 3a/AA control [4, 5]: 0.9266 Fold over Wnt 3a/AA control
O=C1NC(=O)C2=C1c1cn(c3ccccc13)CCOCCOCCn1cc2c2ccccc21 [Compound 164, 6,7,9,10,12,13-Hexahydro-20H-5,23:14,19-di(metheno)dibenzo[h,n]pyrrolo[3,4-k][1,4,7,16]dioxadiazacyclooctadecine-20,22(21H)-dione] | 1300640 | 0.0475 fold | 67 | 0.05259 fold | 12 | 0.007385 fold | 68.2% | 0.6350 | 0.6923 and 0.5994 and 0.6134 | 85949 | 0.0028 fold | 
O=C1NC(=O)C2=C1c1cn(c3ccccc13)CCOCCOCCOCCOCCn1cc2c2ccccc21 [Compound 165, 10,11,13,14,16,17,19,20,22,23-Decahydro-1H-9,4:24,29-di(metheno)dibenzo[n,t]pyrrolo[3,4-q][1,4,7,10,13,22]tetraoxadiazacyclotetracosine-1,3(2H)-dione] | 149772525 | 5.4668 fold | 7460 | 5.885 fold | 2899 | 1.736 fold | 195.3% | 1.8175 | 1.7896 and 1.4721 and 2.1908 | 32703235 | 1.0630 fold | HNF3β Expression, Fold over Wnt 3a/AA control [1, 5]: 5.4668 Fold over Wnt 3a/AA control; Proliferative Response Fold over Wnt 3a/AA control [2, 10]: 5.8846 Fold over Wnt 3a/AA control; SOX17 Expression, Fold over Wnt 3a/AA control [4, 5]: 1.0630 Fold over Wnt 3a/AA control
O=C(Nc1ccc(C(=O)N2CC3CSCCN3Cc3ccccc32)c(Cl)c1)c1cc(Cl)cc(Cl)c1 (stereo not drawn) [Compound 166, 3,5-Dichloro-N-[3-chloro-4-(3,4,12,12a-tetrahydro-1H-[1,4]thiazino[3,4-c][1,4]benzodiazepin-11(6H)-ylcarbonyl)phenyl]benzamide] | 10743082 |  | 787 |  | 562 |  |  | 1.6794 |  | 11388240 |  | fold induction at 10 µM [2, 10]: 0.621; activity at 10 µM [3]: 180%
O=C1NC(=O)C2=C1c1cn(c3ncccc13)CCOCCOCCOCCOCCOCCn1cc2c2cccnc21 [Compound 168, 10,11,13,14,16,17,19,20,22,23,25,26-Dodecahydro-1H-9,4:27,32-di(metheno)dipyrido[2,3-q:3′,2′-w]pyrrolo[3,4-t][1,4,7,10,13,16,25]pentaoxadiazacycloheptacosine-1,3(2H)-dione] | 2584708 | 0.0943 fold | 57 | 0.04523 fold | 118 | 0.07046 fold |  | 0.3421 | 0.3702 and 0.3193 and 0.3368 | 2574279 | 0.0837 fold | % Control [3, 11]: 36.8%
O=C1NC(=O)C2=C1c1cn(c3ncccc13)CCOCCOCCOCCOCCn1cc2c2cccnc21 [Compound 169] |  |  |  |  |  |  | 76.7% | 0.7138 | 0.5876 and 0.6384 and 0.9154 |  |  | HNF3β Expression, Fold over Wnt 3a/AA control [1, 5]: 0.9520 Fold over Wnt 3a/AA control; Proliferative Response Fold over Wnt 3a/AA control [2, 10]: 1.0764 Fold over Wnt 3a/AA control; Average (of Raw Data) [3, 12]: 0.3354; % Control [3, 13]: 24.4%; SOX17 Expression, Fold over Wnt 3a/AA control [4, 5]: 1.0342 Fold over Wnt 3a/AA control
CN(C)CCCn1cc(C2=C(c3cccc4ccccc34)C(=O)NC2=O)c2cccnc21 [Compound 175, 3-{1-[3-(Dimethylamino)propyl]-1H-pyrrolo[2,3-b]pyridin-3-yl}-4-naphthalen-1-yl-1H-pyrrole-2,5-dione] | 1605538 |  | 42 |  | 1 |  |  | 0.1467 |  | 0 |  | 
O=C1NC(=O)C2=C1c1cn(c3ncccc13)CCOCCOCCn1cc2c2cccnc21 [Compound 180, 6,7,9,10,12,13-Hexahydro-20H-5,23:14,19-di(metheno)dipyrido[2,3-h:3′,2′-n]pyrrolo[3,4-k][1,4,7,16]dioxadiazacyclooctadecine-20,22(21H)-dione] | 101114 | 0.0037 fold | 4 | 0.003155 fold | 3 | 0.001796 fold |  | 0.1247 | 0.1239 and 0.1233 and 0.1269 | 0 | 0.0000 fold | Average (of Raw Data) [3, 12]: 0.3793; % Control [3, 13]: 29.3%; % Control [3, 11]: 13.4%
O=C1NC(=O)C(c2cn(CCCO)c3ncccc23)=C1c1cn(CCCO)cn1 [Compound 182, 3-[1-(3-Hydroxypropyl)-1H-imidazol-4-yl]-4-[1-(3-hydroxypropyl)-1H-pyrrolo[2,3-b]pyridin-3-yl]-1H-pyrrole-2,5-dione] | 8880858 |  | 425 |  | 20 |  |  | 0.2828 |  | 0 |  | 
O=C1NC(=O)C(c2cn(CCCO)c3ncccc23)=C1c1cn(CCO)cn1 [Compound 183, 3-[1-(2-Hydroxyethyl)-1H-imidazol-4-yl]-4-[1-(3-hydroxypropyl)-1H-pyrrolo[2,3-b]pyridin-3-yl]-1H-pyrrole-2,5-dione] | 170177 |  | 5 |  | 7 |  |  | 0.2321 |  | 48154 |  | 
O=C1NC(=O)C(c2cn(CCCO)c3ncccc23)=C1c1ccn(CCCO)n1 [Compound 185, 3-[1-(3-Hydroxypropyl)-1H-pyrazol-3-yl]-4-[1-(3-hydroxypropyl)-1H-pyrrolo[2,3-b]pyridin-3-yl]-1H-pyrrole-2,5-dione] |  |  |  |  |  |  |  | 0.2632 |  |  |  | fold induction at 10 µM ([1]; Homo sapiens, Embryonic stem cell, 10 μM test compound with 100 ng/ml activin A on days 1-2, H9, total intensity by IN Cell Analyzer, strong and moderate hits, read-out: HNF3β Expression, Fold over Wnt 3a/AA control): 0.865; fold induction at 10 µM [2, 10]: 0.944; fold induction at 10 µM ([4]; Homo sapiens, Embryonic stem cell, 10 μM test compound with 100 ng/ml activin A on days 1-2, H9, total intensity by IN Cell Analyzer, strong and moderate hits, read-out: SOX17 Expression, Fold over Wnt 3a/AA control): 0.889
CN(CCO)CCCn1nc(C2=C(c3cn(-c4cccnc4)c4ccccc34)C(=O)NC2=O)c2ccccc21 [Compound 198, 3-(1-{3-[(2-Hydroxyethyl)(methyl)amino]propyl}-1H-indazol-3-yl)-4-(1-pyridin-3-yl-1H-indol-3-yl)-1H-pyrrole-2,5-dione] | 61161468 |  | 2594 |  | 2386 |  |  | 1.1253 |  | 20866647 |  | activity at 10 µM [3]: 70.7%

Source: patent US20130337564A1, “Treatment of Pluripotent Cells” (Janssen Biotech, Inc., priority 2012, published 2013)
